{"source": "patent US20260049101A1", "about": "“TOPICAL TREATMENT OF SKIN CANCER USING OLIGOPEPTIDES” (BACOBA AG, priority 2022, published 2026)", "key": {"[1]": {"test_system": "cutaneous squamous cell carcinoma cell line SCC12", "assay": "In vitro anti-proliferative assay (resazurin) in SCC12", "format": "cell-based", "settings": "SCC12, 72 hours", "description": "Methodology. The cutaneous squamous cell carcinoma cell culture SCC12 was cultivated in keratinocyte-SFM media (KSFM, Cat #17005042, Gibco) supplemented with human recombinant epidermal growth factor 1-53 (EGF 1-53) and bovine pituitary extract (BFE).\nVehicle treated wells were set to 100% viability."}, "M130107": {"test_system": "M130107", "settings": "read-out: IC50 M130107", "protocol": "(§1) For the maintenance of healthy human fibroblast cell culture Dulbecco's Modified Eagle Medium (DMEM, Cat #11966025, Gibco) supplemented with 10% heat-inactivated fetal bovine serum (Cat #S006420H01, BioWest) was used. For the maintenance of melanoma cell cultures RPMI-1640 (Cat #R0883, Gibco) supplemented with L-glutamine (Cat #25030-081, Gibco), 1 mM sodium pyruvate (Cat #S8636, Sigma-Aldrich), 10% heat-inactivated fetal bovine serum (Cat #S006420H01, BioWest) and 1% Penicillin-Streptomycin (Cat #15140122, Gibco) was used. The MyLa_CTCL cell cultures were cultivated in RPMI 1640 Medium (R0883) supplemented with 2 mM L-Glutamine (G7513), 10 U/ml IL-2 (H7041), 10 U/ml IL-4 (H7291) and 10% Human AB Serum (H4522). The cutaneous squamous cell carcinoma cell cultures A431 and SCC13 were cultivated in Dulbecco's Modified Eagle Medium (DMEM, Cat #11966025, Gibco) supplemented with 10% heat-inactivated fetal bovine serum (Cat #S006420H01, BioWest).\n(§2) To determine the half maximal inhibitory concentrations (IC50's) serial dilution of compounds in DMSO to 1000× was performed (10 mM, 5 mM, 1 mM, 500 μM, 250 μM, 100 μM, 10 μM, 1 μM). 2 μl of these dilutions were further diluted in 198 μl growth medium with supplements, mixed well and 10 μl were further dispensed in triplicates to the 96-well plates containing cells in 90 μl.\n(§3) For each drug condition and cell culture (for each row of the triplicate) a well with only RPMI-1640 complete/KSFM/DMEM media and one with media and DMSO were made as controls. DMSO was never at a higher concentration than 0.2% v/v. Triplicates were seeded for each condition. On the day of the assay, the medium was exchanged with cell culture media containing 0.1% of Resazurin-sodium salt stock solution (stock: 0.015 mg/ml, in PBS, Cat #R7017, Sigma-Aldrich). […] With a fluorescence-based plate reader (Infinite M200 Pro, Tecan, Switzerland) using excitations between […] and emissions at 590 nM the cell-culture plates were readout. The calculations and graphs are performed with GraphPad Prism program. Vehicle treated wells were set to 100% viability."}, "[2]": {"test_system": "cutaneous T cell lymphoma MyLa_CTCL", "settings": "read-out: IC50 MyLa_CTCL", "protocol": "as §1, §2, §3"}, "[3]": {"test_system": "cutaneous melanoma M010817", "settings": "read-out: IC50 M010817", "protocol": "as §1, §2, §3"}, "[4]": {"test_system": "cutaneous melanoma M150507", "settings": "read-out: IC50 M150507", "protocol": "as §1, §2, §3"}, "[5]": {"test_system": "cutaneous melanoma M150672", "settings": "read-out: IC50 M150672", "protocol": "as §1, §2, §3"}, "[6]": {"test_system": "cutaneous squamous cell carcinoma cell line A431_SCC", "settings": "read-out: IC50 A431", "protocol": "as §1, §2, §3"}, "[7]": {"test_system": "cutaneous squamous cell carcinoma cell line SCC13", "settings": "read-out: IC50 SCC13", "protocol": "as §1, §2, §3"}, "[8]": {"test_system": "healthy skin dermal fibroblasts", "protocol": "as §1, §2, §3"}, "[9]": {"assay": "Dermal tolerability in the in vivo efficacy test", "set-up": "species or system mouse", "settings": "20 μl of 5% 6027 once a day", "protocol": "In vivo efficacy test methodology. C57Bl/6 mice (Janvier Labs); females; 6-8 weeks old at beginning of the treatment. The tumour was induced through intradermal inoculation of 1×10^5 cells per mouse intradermally in the skin of the neck. A total of 24 mice were used (n=8 for vehicle, n=8 for 5% 6027, n=8 for leucinostatin A 0.2%). Test item was applied starting on day 1 after inoculation of the tumour cells. The test items of 20 μl of 5% 6027 and of 0.2% Leucinostatin A were applied dermally with a pipette once a day every day for up to 21 days to the intact skin area of about 1 cm^2 on the site were the B16-F10 cells had been injected. If ulceration occurred then the animal was removed from the test and sacrificed."}, "[10]": {"test_system": "B16F10 xenografts in C57BL/6 mice", "assay": "Histopathology (Ki67, TUNEL) of tumour slices from treated mice", "format": "in vivo, mouse", "settings": "daily 20 μl of 6027 vs vehicle treated controls; Two-Way ANOVA", "protocol": "The read out was tumour volume measured three times a week expressed as tumour volume (in cm^3). Additionally, tumour samples were taken for histological analysis (Tumour FFPE) (2 mice per group).\nHistopathology. After sacrifice non ulcerated tumours were sampled and paraffin blocks were prepared for immunohistochemistry stainings. […] During interphase, the Ki-67 antigen can be exclusively detected within the cell nucleus, whereas in mitosis most of the protein is relocated to the surface of the chromosomes. Ki-67 protein is present during all active phases of the cell cycle (G1, S, G2 and mitosis), but is absent in resting (quiescent) cells (G0). Cellular content of Ki-67 protein markedly increases during cell progression through S phase of the cell cycle.\nTUNEL staining was used to determine areas of the tumour in which apoptosis was observed. Terminal deoxynucleotidyl transferase dUTP nick end labeling (TUNEL) staining is a method for detecting DNA fragmentation by labeling the 3′-hydroxyl termini in DNA double-stranded breaks generated during apoptosis."}, "[11]": {"test_system": "patient derived Basal Cell Carcinoma (BCC)", "format": "cell-based, human", "settings": "4 days, vs DMSO; for cell proliferation (Ki67): p<0.002", "description": "Tumour material was harvested from an infiltrative basal cell carcinoma (BCC) from a patient's nose."}, "[12]": {"test_system": "patient derived Basal Cell Carcinoma (BCC)", "assay": "Ex vivo patient-derived nodular BCC (Example 10), Ki67", "format": "cell-based, human", "settings": "500 nM, 4 days, compared to Vismodegib (20 μM); p<0.002", "protocol": "Tumour material was harvested from a nodular basal cell carcinoma (BCC) from a patient's upper back.\nVismodegib (20 μM) was used as a positive control."}, "[13]": {"test_system": "patient derived high grade cutaneous squamous cell carcinoma (cSCC)", "assay": "Ex vivo patient-derived high grade cSCC (Example 11), Ki67", "format": "cell-based, human", "settings": "500 nM, 4 days, vs DMSO; p<0.003", "description": "Tumour material was harvested from high grade cutaneous squamous cell carcinoma (cSCC) from a patient's head."}}, "note": "“Also recorded” adds a separate entry of the source. Read-outs that look alike come from different tables or passages of the source. Square brackets hold non-standard residues; d marks the D form. Peptide text beside a SMILES is read from it. * marks the point of attachment. NH(1-CH2NMe2-cBu) = CN(C)CC1(N*)CCC1; Benzoyl(4-F) = O=C(c1ccc(F)cc1)*; hCha = N[C@@H](CCC1CCCCC1)C(=O)O; Aib = CC(C)(N)C(=O)O; βAla = NCCC(=O)O"}
{"compound": "CC(C)C[C@H](NC(=O)[C@H](CCC1CCCCC1)NC(=O)[C@@H]1CCCN1C(=O)c1ccc(F)cc1)C(=O)NC(C)(C)C(=O)N[C@@H](CC(C)C)C(=O)N[C@@H](CC(C)C)C(=O)NC(C)(C)C(=O)NC(C)(C)C(=O)NCCC(=O)NC1(CN(C)C)CCC1", "note": "[Compound 6027, (2S)-2-[(2S)-4-cyclohexyl-2-{[(2S)-1-(4-fluorobenzoyl)pyrrolidin-2-yl]formamido}butanamido]-N-(1-{[(1S)-1-{[(1S)-1-({1-[(1-{[2-({1-[(dimethylamino)methyl]cyclobutyl}carbamoyl)ethyl]carbamoyl}-1-methylethyl)carbamoyl]-1-methylethyl}carbamoyl)-3-methylbutyl]carbamoyl}-3-methylbutyl]carbamoyl}-1-methylethyl)-4-methylpentanamide] ({Benzoyl(4-F)}-P[hCha]L[Aib]LL[Aib][Aib][βAla]-{NH(1-CH2NMe2-cBu)})", "values": [{"measurement": "IC50", "setting": "[1]", "result": 118, "unit": "nM"}, {"measurement": "IC50", "setting": "M130107", "result": 169, "unit": "nM"}, {"measurement": "IC50", "setting": "[2]", "result": 451, "unit": "nM"}, {"measurement": "IC50", "setting": "[3]", "result": 60, "unit": "nM"}, {"measurement": "IC50", "setting": "[4]", "result": 56, "unit": "nM"}, {"measurement": "IC50", "setting": "[5]", "result": 122, "unit": "nM"}, {"measurement": "IC50", "setting": "[6]", "result": 70, "unit": "nM"}, {"measurement": "IC50", "setting": "[7]", "result": 191, "unit": "nM"}, {"measurement": "cytotoxicity against healthy skin dermal fibroblasts compared with skin cancer cell lines", "setting": "[8]", "result": "less pronounced"}, {"measurement": "IC50", "setting": "[8]; read-out: IC50 Fibroblast, healthy skin dermal fibroblasts", "result": 3030, "unit": "nM"}, {"measurement": "skin irritations or other side effects", "setting": "[9]", "result": "No skin irritations or other side effects were observed; also recorded: did not show skin irritations"}, {"measurement": "tolerability of dermal treatment", "setting": "[9]", "result": "well tolerated"}, {"measurement": "apoptotic cells (TUNEL) in tumour slices", "setting": "[10]", "result": "significant increase of apoptotic cells; also recorded: Strong proapoptotic potential"}, {"measurement": "proliferative cells (Ki67) in tumour slices", "setting": "[10]", "result": "significant decrease in proliferative cells"}, {"measurement": "apoptotic cells (TUNEL staining)", "setting": "[11]; 500 nM", "result": "Significant increase"}, {"measurement": "cell proliferation (Ki67)", "setting": "[11]; 500 nM", "result": "significantly reduced"}, {"measurement": "cell proliferation (Ki67)", "setting": "[11]; 1 μM", "result": "significantly reduced"}, {"measurement": "apoptotic cells (TUNEL staining)", "setting": "[11]", "result": "Significant increase"}, {"measurement": "cell proliferation (Ki67)", "setting": "[12]", "result": "significantly reduced"}, {"measurement": "cell proliferation (Ki67)", "setting": "[13]", "result": "significantly reduced"}]}
